Source: patent publication US20090203708A1, “NOVEL SUBSTITUTED-1-H-QUINAZOLINE-2,4-DIONE DERIVATIVES, PREPARATION METHOD THEREOF AND PHARMACEUTICAL COMPOSITION CONTAINING THE SAME” (Korea Research Institute of Chemical Technology, priority 2006, published 2009)

How the values were obtained:
rotarod deficit = assay: Rotarod deficit in mice; type: in vivo
Procedure: In order to examine the effects of the compounds of the present invention on the central nervous system and behavior, a rotarod test was performed as follows.
Mice were placed on a plastic rod having a node 1 inch in diameter (Ugo-Basile, Milano, Italy), followed by rotating the rod at a speed of 6 rpm. 30, 60, 90 and 120 min after the administration of test compounds, the mice that fell from the rotating rod within 1 min were counted to determine rotarod deficits (%) (Dunham et al., 1957).

lethality = assay: Lethality (LD50) in mice; type: in vivo; settings: i.p.
[1] = test system: apomorphine-induced PPI disruption; assay: Apomorphine-induced PPI disruption in rat; settings: rat
[2] = biological target: human serotonin 5-HT6 receptor (Homo sapiens, UniProt P50406); assay: [3H]LSD binding assay for cloned 5-HT6 receptors
[3] = test system: retention of a previously learned task; settings: rats, literature; cited from earlier work
[4] = test system: rat maximal electroseizure threshold; settings: oral administration, literature; cited from earlier work
[5] = in vivo; cited from earlier work

human serotonin 5-HT6 receptor, sequence (P50406 whole entry): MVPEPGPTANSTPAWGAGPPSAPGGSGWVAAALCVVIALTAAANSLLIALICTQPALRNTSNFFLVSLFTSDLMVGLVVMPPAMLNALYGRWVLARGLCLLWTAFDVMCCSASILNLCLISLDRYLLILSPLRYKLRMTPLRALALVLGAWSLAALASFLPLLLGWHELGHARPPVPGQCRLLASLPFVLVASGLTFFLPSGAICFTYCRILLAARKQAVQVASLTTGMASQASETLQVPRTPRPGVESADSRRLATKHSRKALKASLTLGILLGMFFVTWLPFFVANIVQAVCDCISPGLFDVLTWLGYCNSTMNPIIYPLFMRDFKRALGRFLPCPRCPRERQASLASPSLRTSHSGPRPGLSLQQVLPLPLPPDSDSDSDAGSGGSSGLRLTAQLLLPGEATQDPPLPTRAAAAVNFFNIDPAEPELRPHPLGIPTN

Row | Compound | Rotarod Deficit TD50 (rotarod deficit; mice, i.p. 30 min before testing) | rotarod dysfunction (rotarod deficit; mouse, in vivo, ip, 150 mg/kg, 120 min) | Lethal Degrees LD50 (lethality) | mean startle amplitude versus apomorphine positive control ([1]; given 30 min before apomorphine) | effect of pretreatment on apomorphine-induced PPI disruption ([1]; i.p. 30 min before apomorphine (2 mg/kg, i.p.), 2.5, 5, 10 and 20 mg/kg) | IC50 [2] | retention of a previously learned task in water maze [3] | seizure threshold (rat maximal electroseizure threshold) [4] | bioavailability (in words) [5] | clearance (in words) [5]
1 | C[C@H](c1ccccc1)n1c(=O)c2c(N3CCNCC3)cc(Cl)cc2n(Cc2ccccc2)c1=O [Example 68, 1-benzyl-7-chloro-3-[(R)-1-phenyl-ethyl]-5-piperazin-1yl-1H-quinazoline-2,4-dione] | 122 mg/kg, ip | 100% | 152 mg/kg, ip | did not induce significant difference in mean startle amplitude | found to inhibit apomorphine (2 mg/kg, i.p.)-induced PPI disruption | 6.8 nM | – | – | – | –
2 | COc1ccc(S(=O)(=O)Nc2cc(Br)cc(F)c2Br)cc1N1CCNCC1 [SB-357134] | – | – | – | – | – | – | significant improvement in retention of a previously learned task | potent and dose-dependent increase in seizure threshold | excellent oral bioavailability | low clearance rate
